Measured values from patent publication US8372848B2, “Melanin-concentrating hormone receptor antagonists and methods of use” (Mixture Sciences, Inc., priority 2004, dated 2013).

Tests used:
[1] = target: rat MCH1R (Rattus norvegicus, UniProt P97639); experiment: MCH-induced Ca2+ mobilization (FLIPR) in HEK 293T cells expressing rat MCH1R; assay type: cell-based; conditions: HEK 293T cell expressing rat MCH1R; read-out: EC50 for stimulation of Ca2+ mobilization
[2] = system: rats; experiment: MCH-induced food intake after icv administration; assay type: in vivo, rat; conditions: 2 nmol icv
Procedure: To determine inhibitory effects of TPI 1361-17 on MCH-induced food intake, rats were habituated to a wire bottom cage for more than 3 weeks prior to the experiment. Experiments were carried out from 6 a.m. to 7 a.m. when rats were satiated. […] On the other hand, five nmol of TPI 1361-17 suppressed cumulative food intake by 75% even at 4h (FIG. 5B).
To determine the effects of TPI 1361-17 on MCH-induced food intake, rats were randomly divided into three groups: 1) TPI 1361-17 (dissolved in DMSO) and 2 nmol of MCH; 2) MCH 2 nmol, 3) ACSF. Each mixture contained a DMSO equivalent concentration to that of the antagonist solution (up to 5% (v/v)). Ten μl of each solution was administered into lateral ventricle for 2 minutes. The injections were done between 7:00-8:00 a.m., and food intake was monitored for 4 h after the injection.
For animal studies, adult male Sprague-Dawley rats weighing 200-300g were obtained from Charles River Laboratories (Wilmington, Mass.), bearing a 23-gauge stainless steel cannula placed into the right lateral ventricle. Rats were housed individually and maintained on a 12 h light-dark cycle (6:00 am-6:00 pm light) with free access to tap water and rat chaw (PROLAB RMH 2500, containing 23.0% protein, 4.5% fat, gross energy 4.5 kcal/g. PMI nutrition international, LLC. Brentwood, Mo.). Prior to all studies, rats were handled and habituated for 7 days, and 10 μl of artificial cerebrospinal fluid (ACSF: NaCl 124, KCl 5, CaCl2 2.4 MgSO4 2, KH2PO4 1.25, NaHCO3 26 and glucose 10, in mM) was injected through the cannula to minimize stress effects at the time of the experiment. Cannula placement was confirmed in all animals by evaluating the response to 50 ng of angiotensin II. Only animals drinking more than 5 ml of water in 1 h were used in feeding studies.

Chain of rat MCH1R (P97639 whole entry): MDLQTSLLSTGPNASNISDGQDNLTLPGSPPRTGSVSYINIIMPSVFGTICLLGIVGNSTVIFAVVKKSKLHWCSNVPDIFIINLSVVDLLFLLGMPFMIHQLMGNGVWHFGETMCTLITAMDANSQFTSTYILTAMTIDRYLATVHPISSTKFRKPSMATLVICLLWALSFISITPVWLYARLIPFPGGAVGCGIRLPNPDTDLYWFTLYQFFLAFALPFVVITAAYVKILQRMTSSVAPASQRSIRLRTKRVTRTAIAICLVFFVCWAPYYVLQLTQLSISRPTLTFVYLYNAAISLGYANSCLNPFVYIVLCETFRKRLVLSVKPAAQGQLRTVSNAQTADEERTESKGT

CSCC[C@@H]1NC(=O)[C@@H](NC(=O)[C@H](CCCNC(=N)N)NC(=O)[C@H](CC(C)C)NC(=O)[C@H](CCSC)NC(=O)[C@H](CC(=O)O)NC(=O)[C@H](Cc2ccccc2)NC(=O)[C@@H](N)CC(=O)O)CSSC[C@@H](C(=O)N[C@@H](Cc2c[nH]c3ccccc23)C(=O)N[C@@H](CCC(N)=O)C(=O)N[C@H](C(=O)O)C(C)C)NC(=O)[C@@H]2CCCN2C(=O)[C@H](CCCNC(=N)N)NC(=O)[C@H](Cc2ccc(O)cc2)NC(=O)[C@H](C(C)C)NC(=O)[C@H](CCCNC(=N)N)NC(=O)CNC(=O)[C@H](CC(C)C)NC1=O [MCH, reference compound]
EC50 [1]: 0.9 nM
Feeding in satiated rats [2]: induced rapid and robust feeding
